Literature values as cited in patent US11642396B2 (priority 2013, dated 2023).

Test system: H7N9 infection
Details: human, in vivo

SMILES: CCOC(=O)C1=C[C@@H](OC(CC)CC)[C@H](NC(C)=O)[C@@H](N)C1 [oseltamivir]
- viral load in the respiratory tract of patients: reduce the viral load
